Where “and” joins values, the source holds several entries; their conditions need not be identical. Equal values may be shown once.
Settings: Crystal, Calculated from knudsen effusion weight loss

Cc1cc(C(=O)O)c(C)o1 [2,5-dimethyl-3-furancarboxylic acid]
Settings | vapor or sublimation pressure
309.19 K | 0.0001409 kPa and 0.000132 kPa and 0.0001359 kPa
311.12 K | 0.0001806 kPa and 0.0001768 kPa and 0.0001708 kPa
313.08 K | 0.0002273 kPa and 0.0002279 kPa and 0.0002259 kPa
315.18 K | 0.0002809 kPa and 0.0002804 kPa and 0.0002914 kPa
317.12 K | 0.0003673 kPa and 0.0003617 kPa and 0.0003524 kPa
319.08 K | 0.0004503 kPa and 0.0004556 kPa and 0.000449 kPa
321.18 K | 0.0005801 kPa and 0.0005612 kPa and 0.000567 kPa
323.09 K | 0.0007336 kPa and 0.0007218 kPa and 0.0007101 kPa
325.07 K | 0.0009185 kPa and 0.000908 kPa and 0.0008953 kPa
325.19 K | 0.0009292 kPa and 0.000927 kPa and 0.0008864 kPa
327.1 K | 0.001147 kPa and 0.001128 kPa and 0.001102 kPa

Source: the NIST ThermoML archive (doi:10.1016/j.jct.2010.07.006)
